Experiments:
[1] = target: Protein phosphatase 3 catalytic subunit alpha (Homo sapiens, UniProt Q08209); set-up: species or system Escherichia coli;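 further: inhibition of calcineurin (PP2B) enzyme activity, measured with DiFMUP as the substrate; in other assays of this panel Not Active means under 50% inhibition at 10 µM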
[2] = target: T1, Alpha-2C adrenergic receptor (Homo sapiens, UniProt P18825); test: DRUGMATRIX: Adrenergic Alpha-2C radioligand binding (ligand: [3H] MK-912); format: cell membranes, Sf9, Membrane; settings: sf9
T1 sequence (P18825 whole entry): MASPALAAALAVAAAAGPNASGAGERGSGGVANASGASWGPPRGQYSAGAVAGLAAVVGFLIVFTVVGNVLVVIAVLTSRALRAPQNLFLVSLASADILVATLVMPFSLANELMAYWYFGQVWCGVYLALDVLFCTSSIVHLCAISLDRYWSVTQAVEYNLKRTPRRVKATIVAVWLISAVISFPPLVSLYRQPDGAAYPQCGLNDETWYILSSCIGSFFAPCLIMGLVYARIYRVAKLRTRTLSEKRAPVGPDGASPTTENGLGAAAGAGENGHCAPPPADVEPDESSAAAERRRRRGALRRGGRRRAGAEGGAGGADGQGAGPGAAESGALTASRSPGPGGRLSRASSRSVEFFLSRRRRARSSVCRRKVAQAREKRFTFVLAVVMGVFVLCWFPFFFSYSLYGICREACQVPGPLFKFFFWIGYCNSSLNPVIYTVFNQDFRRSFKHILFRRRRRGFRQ

Cytochrome P450 2E1 = Cytochrome P450 2E1 (Homo sapiens, UniProt P05181); settings: bti-tn-5b1-4; further: in other assays of this panel Not Active means under 50% inhibition at 10 µM
Sequence of Cytochrome P450 2E1 (P05181 whole entry): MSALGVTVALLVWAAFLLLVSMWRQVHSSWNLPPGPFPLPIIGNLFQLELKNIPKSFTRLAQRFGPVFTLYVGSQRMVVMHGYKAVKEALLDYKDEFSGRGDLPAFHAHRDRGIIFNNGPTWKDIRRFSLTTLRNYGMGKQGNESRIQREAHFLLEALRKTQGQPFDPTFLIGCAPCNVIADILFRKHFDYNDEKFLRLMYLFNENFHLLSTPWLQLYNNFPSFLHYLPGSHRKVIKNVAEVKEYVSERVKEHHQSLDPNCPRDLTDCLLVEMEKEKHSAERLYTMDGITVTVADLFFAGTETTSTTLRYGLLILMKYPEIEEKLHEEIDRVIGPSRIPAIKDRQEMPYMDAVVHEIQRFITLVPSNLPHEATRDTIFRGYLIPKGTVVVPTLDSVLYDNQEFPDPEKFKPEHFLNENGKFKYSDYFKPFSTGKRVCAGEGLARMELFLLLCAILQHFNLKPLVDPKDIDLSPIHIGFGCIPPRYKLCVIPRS

Cytochrome P450 2A6 = target: T2, Cytochrome P450 2A6 (Homo sapiens, UniProt P11509); settings: bti-tn-5b1-4; further: in other assays of this panel Not Active means under 50% inhibition at 10 µM
T2 sequence (P11509 whole entry): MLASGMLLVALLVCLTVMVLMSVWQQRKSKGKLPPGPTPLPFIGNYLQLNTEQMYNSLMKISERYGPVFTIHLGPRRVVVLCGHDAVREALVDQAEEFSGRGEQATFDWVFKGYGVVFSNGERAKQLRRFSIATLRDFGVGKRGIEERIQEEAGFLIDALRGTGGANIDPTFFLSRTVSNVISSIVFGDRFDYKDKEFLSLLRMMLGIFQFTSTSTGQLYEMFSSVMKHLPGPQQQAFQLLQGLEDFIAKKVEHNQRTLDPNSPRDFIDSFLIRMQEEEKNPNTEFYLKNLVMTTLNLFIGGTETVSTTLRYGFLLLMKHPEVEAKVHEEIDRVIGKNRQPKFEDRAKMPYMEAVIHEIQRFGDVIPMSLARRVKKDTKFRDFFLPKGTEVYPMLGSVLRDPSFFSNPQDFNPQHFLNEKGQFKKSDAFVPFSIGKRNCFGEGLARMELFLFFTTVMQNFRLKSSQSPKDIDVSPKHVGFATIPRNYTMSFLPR

[3] = DRUGMATRIX: GABAA, Chloride Channel, TBOB radioligand binding (ligand: [3H] TBOB); format: cell membranes, Rattus norvegicus, Wistar, Cerebral cortex, Membrane; settings: Not Active = under 50% inhibition at 10 µM
[4] = DRUGMATRIX: Potassium Channel [KATP] radioligand binding (ligand: [3H] Glyburide); format: cell membranes, Membrane; settings: hit-t15; Not Active = under 50% inhibition at 10 µM
Glycine receptor = Glycine receptor (Rattus norvegicus, UniProt P22771+P24524+P07727+P20781); format: cell membranes, Wistar, Spinal cord, Membrane; further: in other assays of this panel Not Active means under 50% inhibition at 10 µM
Mu-type opioid receptor = Mu-type opioid receptor (Homo sapiens, UniProt P35372); test: DRUGMATRIX: Opiate mu (OP3, MOP) radioligand binding (ligand: [3H] Diprenorphine); format: cell membranes, CHO-K1, Membrane; settings: cho-k1; Not Active = under 50% inhibition at 10 µM
Sequence of Mu-type opioid receptor (P35372 whole entry): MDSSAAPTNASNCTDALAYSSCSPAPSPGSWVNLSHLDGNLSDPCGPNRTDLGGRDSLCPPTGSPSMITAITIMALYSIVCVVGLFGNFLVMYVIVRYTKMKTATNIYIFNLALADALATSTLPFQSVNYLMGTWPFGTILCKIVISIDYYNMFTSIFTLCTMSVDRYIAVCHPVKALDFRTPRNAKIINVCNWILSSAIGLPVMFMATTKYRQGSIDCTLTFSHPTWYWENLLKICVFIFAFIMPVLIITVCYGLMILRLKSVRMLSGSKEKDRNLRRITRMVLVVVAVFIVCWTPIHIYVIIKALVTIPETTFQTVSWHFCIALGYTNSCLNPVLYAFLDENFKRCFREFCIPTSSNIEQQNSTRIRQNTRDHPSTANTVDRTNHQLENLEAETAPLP

COCCc1ccc(OCC(O)CNC(C)C)cc1 (stereo unspecified) [METOPROLOL]
Not Active: IC50 [1] | IC50 [2] | IC50 (Cytochrome P450 2E1) | Ki (Cytochrome P450 2E1) | IC50 (Cytochrome P450 2A6) | Ki (Cytochrome P450 2A6) | IC50 [3] | Ki [3] | IC50 [4] | Ki [4] | IC50 (Glycine receptor) | IC50 (Mu-type opioid receptor)

Cc1ccc(-c2cc(C(F)(F)F)nn2-c2ccc(S(N)(=O)=O)cc2)cc1 [CELECOXIB]
Not Active: IC50 [1] | IC50 [2] | IC50 (Cytochrome P450 2E1) | Ki (Cytochrome P450 2E1) | IC50 (Cytochrome P450 2A6) | Ki (Cytochrome P450 2A6) | IC50 [3] | Ki [3] | IC50 [4] | Ki [4] | IC50 (Glycine receptor) | IC50 (Mu-type opioid receptor)

c1ccc(Nc2ccc(Nc3ccccc3)cc2)cc1
Not Active: IC50 [1] | IC50 [2] | IC50 (Cytochrome P450 2E1) | Ki (Cytochrome P450 2E1) | IC50 (Cytochrome P450 2A6) | Ki (Cytochrome P450 2A6) | IC50 [3] | Ki [3] | IC50 [4] | Ki [4] | IC50 (Glycine receptor) | IC50 (Mu-type opioid receptor)

Cc1onc(-c2ccccc2Cl)c1C(=O)N[C@@H]1C(=O)N2[C@@H]1SC(C)(C)[C@@H]2C(=O)O [CLOXACILLIN]
Not Active: IC50 [1] | IC50 [2] | IC50 (Cytochrome P450 2E1) | Ki (Cytochrome P450 2E1) | IC50 (Cytochrome P450 2A6) | Ki (Cytochrome P450 2A6) | IC50 [3] | Ki [3] | IC50 [4] | Ki [4] | IC50 (Glycine receptor) | IC50 (Mu-type opioid receptor)

CC(C)C(=O)Nc1ccc([N+](=O)[O-])c(C(F)(F)F)c1 [FLUTAMIDE]
Not Active: IC50 [1] | IC50 [2] | IC50 (Cytochrome P450 2E1) | Ki (Cytochrome P450 2E1) | IC50 (Cytochrome P450 2A6) | Ki (Cytochrome P450 2A6) | IC50 [3] | Ki [3] | IC50 [4] | Ki [4] | IC50 (Glycine receptor) | IC50 (Mu-type opioid receptor)

CC[C@@]1(O)C[C@H](O[C@H]2C[C@H](N(C)C)[C@H](O[C@H]3C[C@H](O)[C@H](O[C@H]4CCC(=O)[C@H](C)O4)[C@H](C)O3)[C@H](C)O2)c2c(cc3c(c2O)C(=O)c2c(O)cccc2C3=O)[C@H]1C(=O)OC [ACLARUBICIN]
Not Active: IC50 [1] | IC50 [2] | IC50 (Cytochrome P450 2E1) | Ki (Cytochrome P450 2E1) | IC50 (Cytochrome P450 2A6) | Ki (Cytochrome P450 2A6) | IC50 [3] | Ki [3] | IC50 [4] | Ki [4] | IC50 (Glycine receptor) | IC50 (Mu-type opioid receptor)

Nc1nc2c(ncn2CCC(CO)CO)c(=O)[nH]1 [PENCICLOVIR]
Not Active: IC50 [1] | IC50 [2] | IC50 (Cytochrome P450 2E1) | Ki (Cytochrome P450 2E1) | IC50 (Cytochrome P450 2A6) | Ki (Cytochrome P450 2A6) | IC50 [3] | Ki [3] | IC50 [4] | Ki [4] | IC50 (Glycine receptor) | IC50 (Mu-type opioid receptor)

O=c1oc2ccccc2c(O)c1Cc1c(O)c2ccccc2oc1=O [DICUMAROL]
Not Active: IC50 [1] | IC50 [2] | IC50 (Cytochrome P450 2E1) | Ki (Cytochrome P450 2E1) | IC50 (Cytochrome P450 2A6) | Ki (Cytochrome P450 2A6) | IC50 [3] | Ki [3] | IC50 [4] | Ki [4] | IC50 (Glycine receptor) | IC50 (Mu-type opioid receptor)
